US7815803B2, “Preparation of samples for LC-MS/MS using magnetic particles” (Roche Diagnostics Operations, Inc., priority 2007, dated 2010)

Assays:
[1] = in vitro; cited from earlier work
[2] = in vivo; cited from earlier work
[3] = Pooled serum from itraconazole treated patients, LC-MS/MS validation; type: in vivo, human; details: n=9
Procedure: A validation protocol was performed in three independent analytical series. In each series a five-point calibration was performed using a commercially available calibration material for itraconazole measurement (2,000 μg/l, 1,000 μg/l, 500 μg/l, 250 μg/l, and 125 μg/l; Recipe, Munich, Germany). Aliquots of pooled serum from itraconazole treated patients were analyzed in triplicate in each series to calculate a total coefficient of variation (n=9). Commercially available quality control materials (ClinCheck, Recipe, Munich, Germany) in two concentration ranges (target concentrations 150 μg/l, and 2,900 μg/l) were analyzed in the three series.
Linear calibration lines (r>0.99) were obtained in all series. For the pooled serum a total coefficient of variation of 3.4% was observed (mean concentration 380 μg/l); all quality control samples were found within the predefined accepted ranges (±10% of the target concentrations).

SMILES: C=CC[C@@H]1/C=C(\C)C[C@H](C)C[C@H](OC)[C@H]2O[C@@](O)(C(=O)C(=O)N3CCCC[C@H]3C(=O)O[C@H](/C(C)=C/[C@@H]3CC[C@@H](O)[C@H](OC)C3)[C@H](C)[C@@H](O)CC1=O)[C@H](C)C[C@@H]2OC [Tacrolimus, tacrolimus]
- potency relative to cyclosporin [1]: up to 100 times
- therapeutic trough concentration [2]: 5 to 20 µg/L

SMILES: CO[C@H]1C[C@@H]2CC[C@@H](C)[C@@](O)(O2)C(=O)C(=O)N2CCCC[C@H]2C(=O)O[C@H]([C@H](C)C[C@@H]2CC[C@@H](O)[C@H](OC)C2)CC(=O)[C@H](C)/C=C(\C)[C@@H](O)[C@@H](OC)C(=O)[C@H](C)C[C@H](C)/C=C/C=C/C=C/1C [Sirolimus, sirolimus]
- therapeutic trough concentration [2]: 5 to 15 µg/L

SMILES: CCC(C)n1ncn(-c2ccc(N3CCN(c4ccc(OCC5COC(Cn6cncn6)(c6ccc(Cl)cc6Cl)O5)cc4)CC3)cc2)c1=O (centres unmarked) [itraconazole]
- mean concentration in pooled serum [3]: 380 ng/mL

SMILES: COc1c(C)c2c(c(O)c1C/C=C(\C)CCC(=O)OCCN1CCOCC1)C(=O)OC2 [Mycophenolate mofetil, mycophenolate mofetil]
- therapeutic trough concentration [2]: 1000 to 3500 µg/L
